Key:
[1] = system: rainbow trout (Oncorhynchus mykiss); assay: Tissue concentrations in rainbow trout after 7 d exposure via water (two mixtures); assay type: in vivo
Description: The study was conducted with rainbow trout (Oncorhynchus mykiss) weighing between 98 and 165 g. The fish were purchased from Nordic trout Sweden AB and held in the aquaria facility prior to the experiment in February 2018. Ethical approval for the experiments was obtained from Stockholms djurförsöksetiska nämnd (decision 9967-2017). The experiments were conducted in 300 L fiberglass aquaria with a water renewal rate of 1.3 L min^–1 (MIX 1) and 1.45 L min^–1 (MIX 2). The water temperature was 10 °C and the pH 7.5. The water hardness was estimated to be 1.1 mM Ca^2+ based on information from the water supplier. The aquaria water was circulated through a filter of polyester wool at 800–1200 L h^–1 with an Eheim 2273 Pro 4+ pump. The outflow from the filter pump was placed above the water surface, providing for aeration. The lighting was dim and programmed on a 12 h light/12 h dark cycle. The fish were fed fish food pellets supplied by the fish farm at 1.0% of their body weight per day.
A solution of the test chemical mixture in methanol was infused continuously (3.5 and 3.8 μL min^–1 for MIX 1 and MIX 2, respectively) into the water inflow using a syringe pump. The intended concentrations of the chemicals in water ranged from 2.5 to 50 μg L^–1 (Table 1). They were selected with the help of modeled estimates of the BCF that were based on reported and extrapolated membrane water partition coefficients[7] and biotransformation rate constants predicted with quantitative structure activity relationships (QSARs)[24],[25] to parameterize the BIONIC model.[26] Based on these estimates, we selected an exposure concentration which would result in concentrations in fish that were clearly above the limit of quantification (LOQ) of the analytical method, while trying to keep the quantifiable exposure concentration as low as possible to minimize the risk of toxic effects and micelle formation (see comparison of intended concentrations with available toxicological data in Table S4).
The surface of the fish posterior of the gills was rinsed with 100% methanol to remove test chemical residues adsorbed to the outer surface of the skin and absorbed in the skin mucus. […] The fish were dissected and the liver, the kidney, the gills, and the remaining contents of the abdominal cavity were taken and weighed. Skin and muscle samples were prepared from the upper dorsal region on semi-frozen fish after the methanol rinse had removed the mucus. The main part of the subcutaneous fat tissue was included in the muscle samples rather than in the skin samples. All samples were stored frozen at −20 °C until further analysis.
For 6 fish from each aquarium and 3 control fish, samples of muscle, skin, liver, and gills were homogenized in a bullet blender (muscle and liver) (MiniG, SPEXsamplePrep) or in a cryo-mill (skin and gill) (Mixer mill cryomill, Retsch GmbH). A sub-sample of 0.5–1.2 g of the homogenate was extracted twice in methanol (4 mL, 50 °C, ultra-sound, 60 min), employing centrifugation at 4000 rpm for phase separation. Further information on the extraction efficiency of this method can be found in the Supporting Information (Table S5 and accompanying text). Isotope labeled standards of Q10 (D21), Q14 (D29), and P16 (D33) were added to a portion of the extract corresponding to 12–75 mg of the sample. The extract volume was adjusted to 3 mL with methanol and then cleaned up on a weak cationic exchange SPE column (WCX, 60 mg, 30 μm particle size, waters). Solvent elution was performed by gravity flow. The column was conditioned with 2 mL of methanol, followed by 2 mL of Milli-Q water adjusted to pH 7 with ammonium hydroxide to activate the ion exchange. The sample extract was loaded onto the column, and it was subsequently rinsed with 20 mL of methanol.

[2] = system: rainbow trout (Oncorhynchus mykiss); assay: Surface area-normalized mucus-water and gill-water distribution coefficients
Description: For each mixture, the syringe pump was started in an aquarium containing no fish. After 16 h, to allow the concentrations to stabilize, 12 rainbow trout were added. After 7 d of exposure, the fish in the exposure aquaria as well as several unexposed (control) fish were sacrificed. Following stunning, blood was collected with a heparinized syringe from the caudal vein into a 2 mL Eppendorf tube. The fish were weighed and photographed, and the length was measured. The outer surface area of the fish was estimated from the fish weight according to O’Shea et al.[27] [drawing 1] 1
The gill surface area was estimated from the fish weight according to the equation specific for O. mykiss from a report by Hughes,[28] taken from ref ([29]) [drawing 2] 2
Because the mass of extracted mucus was not determined, the concentrations in mucus were normalized to the estimated fish’s total surface area (eq 1) excluding the head, which was not rinsed.
Surface area-normalized gill–water distribution coefficients (DG–W) were calculated from the average concentrations measured in gills and water, and a calculated gill surface based on rainbow trout specific scaling factors (eq 2). […] Unlike the skin, the gills were not rinsed with methanol, so the gill samples included gill mucus.

[3] = system: rainbow trout (Oncorhynchus mykiss); assay: Apparent bioconcentration factor at end of 7-day exposure; assay type: in vivo; conditions: end of 7-day exposure, body burden including mucus
Description: Apparent BCFs (BCFapp) at the end of the 7-day exposure were calculated by dividing the surfactant body burden (including mucus) by the fish mass, and dividing this by the average measured concentration in water samples taken during the exposure phase. The BCFapp values ranged from 0.1 to 1260 (Table S18). Given the short exposure period, it is possible that the fish in this study had not approached steady state, in particular with respect to the distribution between water and internal tissues and between water and skin, and that the steady-state BCFs are higher. […] We note that some improvements in the methodology would be helpful, particularly with respect to the stability of the aqueous exposure concentration of the longest chain surfactants. Working with mixtures of analogue cationic surfactants allowed for consistent evaluation of differences in accumulation trends due to structural features.

[4] = Membrane-water partition/distribution coefficient; conditions: extrapolated from data of Timmer and Droge (2017)
[5] = mean of exposed fish, Table S13
[6] = mean of exposed fish, Table S14
[7] = wet weight, mean of six fish (RSD %), 7 d exposure, Q10, Q14 below LOQ

CCCCCCCCCCCCCN(C)C [T13, N,N-dimethyltridecylamine]
Concentration in blood ([1]; exposed fish #1): 890 ng/g
Concentration in gills ([1]; exposed fish #1): 9077 ng/g
Concentration in gills, surface area-normalized ([1]; exposed fish #1): 140 ng cm-2
Concentration in liver ([1]; exposed fish #1): 6570 ng/g
Concentration in mucus ([1]; exposed fish #1): 57 ng cm-2
Concentration in muscle ([1]; exposed fish #1): 580 ng/g
Concentration in skin ([1]; exposed fish #1): 1879 ng/g
Concentration in skin, per surface area ([1]; exposed fish #1): 89 ng cm-2
Concentration in blood ([1]; exposed fish #2): 816 ng/g
Concentration in gills ([1]; exposed fish #2): 9391 ng/g
Concentration in gills, surface area-normalized ([1]; exposed fish #2): 150 ng cm-2
Concentration in liver ([1]; exposed fish #2): 8202 ng/g
Concentration in mucus ([1]; exposed fish #2): 59 ng cm-2
Concentration in muscle ([1]; exposed fish #2): 593 ng/g
Concentration in skin ([1]; exposed fish #2): 1877 ng/g
Concentration in skin, per surface area ([1]; exposed fish #2): 160 ng cm-2
Concentration in blood ([1]; exposed fish #3): 1018 ng/g
Concentration in liver ([1]; exposed fish #3): 13696 ng/g
Concentration in mucus ([1]; exposed fish #3): 52 ng cm-2
Concentration in muscle ([1]; exposed fish #3): 601 ng/g
Concentration in skin ([1]; exposed fish #3): 2115 ng/g
Concentration in skin, per surface area ([1]; exposed fish #3): 150 ng cm-2
Concentration in blood ([1]; exposed fish #4): 858 ng/g
Concentration in gills ([1]; exposed fish #4): 9586 ng/g
Concentration in gills, surface area-normalized ([1]; exposed fish #4): 178 ng cm-2
Concentration in liver ([1]; exposed fish #4): 20532 ng/g
Concentration in mucus ([1]; exposed fish #4): 63 ng cm-2
Concentration in muscle ([1]; exposed fish #4): 882 ng/g
Concentration in skin ([1]; exposed fish #4): 2718 ng/g
Concentration in skin, per surface area ([1]; exposed fish #4): 154 ng cm-2
Concentration in blood ([1]; exposed fish #5): 795 ng/g
Concentration in gills ([1]; exposed fish #5): 11785 ng/g
Concentration in gills, surface area-normalized ([1]; exposed fish #5): 209 ng cm-2
Concentration in liver ([1]; exposed fish #5): 12097 ng/g
Concentration in mucus ([1]; exposed fish #5): 70 ng cm-2
Concentration in muscle ([1]; exposed fish #5): 767 ng/g
Concentration in skin ([1]; exposed fish #5): 1738 ng/g
Concentration in skin, per surface area ([1]; exposed fish #5): 154 ng cm-2
Concentration in blood ([1]; exposed fish #6): 1205 ng/g
Concentration in gills ([1]; exposed fish #6): 11130 ng/g
Concentration in gills, surface area-normalized ([1]; exposed fish #6): 148 ng cm-2
Concentration in liver ([1]; exposed fish #6): 9499 ng/g
Concentration in mucus ([1]; exposed fish #6): 70 ng cm-2
Concentration in muscle ([1]; exposed fish #6): 606 ng/g
Concentration in skin ([1]; exposed fish #6): 2209 ng/g
Concentration in skin, per surface area ([1]; exposed fish #6): 162 ng cm-2
Concentration in blood ([1]; mean of exposed fish, Table S10): 930 ng/g
Concentration in muscle ([1]; mean of exposed fish, Table S11): 672 ng/g
Concentration in liver ([1]; mean of exposed fish, Table S12): 11766 ng/g
Concentration in gills [1, 5]: 10194 ng/g
Concentration in gills, surface area-normalized [1, 5]: 165 ng cm-2
Concentration in skin [1, 6]: 2089 ng/g
Concentration in skin, per surface area [1, 6]: 145 ng cm-2
Concentration in mucus ([1]; mean of exposed fish, Table S15): 62 ng cm-2
Concentration in mucus ([1]; methanol rinse normalized to fish surface area, mean of six fish (RSD %)): 62 (9) ng cm^–2
Concentration in blood ([1]; wet weight, mean of six fish (RSD % in brackets), 7 d exposure, Q10 below LOQ): 930 (17) ng g^–1
Concentration in muscle [1, 7]: 670 (19) ng g^–1
Concentration in skin [1, 7]: 2100 (17) ng g^–1
Gill-water distribution coefficient (DG-W) ([2]; from average concentrations in gills and water, calculated gill surface): 58 mLcm-2
Mucus-water distribution coefficient (DMuc-W) ([2]; from average concentrations in mucus and water): 22 mL cm-2
Apparent bioconcentration factor (BCFapp) [3]: 510 L kg-1 wet weight
Log KMW,C (membrane-water partition coefficient of the charged form), extrapolated [4]: 5.88
